ChEMBL document CHEMBL3046235, “In vitro biological activities of new heterocyclic chalcone derivatives” (Med Chem Res, 2013)
Converted amounts (≈) assume the structure as drawn. The source made the active and inactive calls. The calls are words filed in the database; no cut-off is given here.

Tests used:
Candida albicans [1] = assay: Antimicrobial activity against Candida albicans assessed as growth inhibition by disk diffusion method; assay type: functional
Camelpox virus [2] = assay: Antiviral activity against Camelpox virus infected African green monkey Vero cells assessed as reduction of virus titers at MNTC dose incubated for 24 hr measured after 3 days by TCID50 assay; assay type: functional, organism-based
Camelpox virus [3] = assay: Antiviral activity against Camelpox virus infected African green monkey Vero cells assessed as inhibition of viral replication at MNTC dose incubated for 24 hr measured after 3 days; assay type: functional
Candida albicans [4] = assay: Antimicrobial activity against Candida albicans assessed as diameter of growth inhibition zone at 40 ug/ml by disk diffusion method; assay type: functional; conditions: read-out: DIZ
Aspergillus niger [5] = assay: Antimicrobial activity against Aspergillus niger assessed as growth inhibition by disk diffusion method; assay type: functional
Vero = assay: Cytotoxicity against Chlorocebus aethiops (African green monkey) Vero cells assessed as change in morphological changes after 4 days by inverted microscopic analysis; assay type: cell-based; conditions: chlorocebus sabaeus, 96 h
Staphylococcus aureus [6] = assay: Antimicrobial activity against Staphylococcus aureus isolated from infected patient assessed as diameter of growth inhibition zone at 40 ug/ml by disk diffusion method; assay type: functional; conditions: read-out: DIZ
Bacillus subtilis [7] = assay: Antimicrobial activity against Bacillus subtilis isolated from infected patient assessed as diameter of growth inhibition zone at 40 ug/ml by disk diffusion method; assay type: functional; conditions: read-out: DIZ
[8] = test system: Radical scavenging activity; assay: Antioxidant activity assessed as DPPH radical scavenging activity at 15 ug/ml after 30 min by spectrophotometric analysis; assay type: functional
Escherichia coli [9] = assay: Antimicrobial activity against Escherichia coli isolated from infected patient assessed as growth inhibition by disk diffusion method; assay type: functional
Goatpox virus [10] = assay: Antiviral activity against Goatpox virus infected African green monkey Vero cells assessed as inhibition of viral replication at MNTC dose incubated for 24 hr measured after 6 days; assay type: functional
Staphylococcus aureus [11] = assay: Antimicrobial activity against Staphylococcus aureus isolated from infected patient assessed as growth inhibition by disk diffusion method; assay type: functional
Buffalopox virus [12] = assay: Antiviral activity against Buffalopox virus virus infected African green monkey Vero cells assessed as reduction of virus titers at MNTC dose incubated for 24 hr measured after 4 days by TCID50 assay; assay type: functional, organism-based
Buffalopox virus [13] = assay: Antiviral activity against Buffalopox virus virus infected African green monkey Vero cells assessed as inhibition of viral replication at MNTC dose incubated for 24 hr measured after 4 days; assay type: functional
Salmonella typhi [14] = assay: Antimicrobial activity against Salmonella enterica subsp. enterica serovar Typhi isolated from infected patient assessed as growth inhibition by disk diffusion method; assay type: functional
Escherichia coli [15] = assay: Antimicrobial activity against Escherichia coli isolated from infected patient assessed as diameter of growth inhibition zone at 40 ug/ml by disk diffusion method; assay type: functional; conditions: read-out: DIZ
Goatpox virus [16] = assay: Antiviral activity against Goatpox virus infected African green monkey Vero cells assessed as reduction of virus titers at MNTC dose incubated for 24 hr measured after 6 days by TCID50 assay; assay type: functional, organism-based
Bacillus subtilis [17] = assay: Antimicrobial activity against Bacillus subtilis isolated from infected patient assessed as growth inhibition by disk diffusion method; assay type: functional
HepG2 = assay: Cytotoxicity against Homo sapiens (human) HepG2 cells assessed as inhibition of cell viability by trypan blue exclusion method; assay type: functional; conditions: read-out: LC50 (the source's name)
Aspergillus niger [18] = assay: Antimicrobial activity against Aspergillus niger assessed as diameter of growth inhibition zone at 40 ug/ml by disk diffusion method; assay type: functional; conditions: read-out: DIZ
Salmonella typhi [19] = assay: Antimicrobial activity against Salmonella enterica subsp. enterica serovar Typhi isolated from infected patient assessed as diameter of growth inhibition zone at 40 ug/ml by disk diffusion method; assay type: functional; conditions: read-out: DIZ

Row | Structure (SMILES) | MIC (Candida albicans [1]) [mg/L] | inhibition (Camelpox virus [2]) | inhibition (INH) (Camelpox virus [3]) [%] | zone of inhibition at 40 µg/mL (Candida albicans [4]) [mm] | MIC (Aspergillus niger [5]) [mg/L] | MNTD (Vero) [µg] | zone of inhibition at 40 µg/mL (Staphylococcus aureus [6]) [mm] | zone of inhibition at 40 µg/mL (Bacillus subtilis [7]) [mm] | Activity [8] [%] | MIC (Escherichia coli [9]) [mg/L] | inhibition (INH) (Goatpox virus [10]) [%] | MIC (Staphylococcus aureus [11]) [mg/L] | inhibition (Buffalopox virus [12]) | inhibition (INH) (Buffalopox virus [13]) [%] | MIC (Salmonella typhi [14]) [mg/L] | zone of inhibition at 40 µg/mL (Escherichia coli [15]) [mm] | inhibition (Goatpox virus [16]) | MIC (Bacillus subtilis [17]) [mg/L] | zone of inhibition at 40 µg/mL (Aspergillus niger [18]) [mm] | zone of inhibition at 40 µg/mL (Salmonella typhi [19]) [mm] | other results
1 | O=C(/C=C/c1ccc[nH]1)c1ccsc1 | 40 (≈ 197 µM) | inactive | 0 | 23 | 30 (≈ 148 µM) | 4.68 | 16 | 23 | 31 | 40 (≈ 197 µM) | 0 | 40 (≈ 197 µM) | inactive | 0 | 40 (≈ 197 µM) | 24 | inactive | 30 (≈ 148 µM) | 23 | 23 | CC50 (HepG2): 21 mg/L (≈ 103 µM)
2 | Cc1cc(C(=O)/C=C/c2c[nH]c3ccccc23)c(C)o1 | 40 (≈ 151 µM) | inactive | 0 | 19 | 40 (≈ 151 µM) | 75 | 22 | 22 | 31 | 40 (≈ 151 µM) | 0 | 20 (≈ 75.4 µM) | inactive | 0 | 30 (≈ 113 µM) | 21 | inactive | 40 (≈ 151 µM) | 11 | 22 | CC50 (HepG2): 81 mg/L (≈ 305 µM)
3 | COc1ccc(/C=C/C(=O)c2cc(C)oc2C)cc1 | 30 (≈ 117 µM) | inactive | 0 | 18 | 30 (≈ 117 µM) | 1.3 | 21 | 23 | 64.9 | 30 (≈ 117 µM) | 0 | 40 (≈ 156 µM) | inactive | 0 | 20 (≈ 78 µM) | 21 | inactive | 40 (≈ 156 µM) | 18 | 24 | CC50 (HepG2): 63 mg/L (≈ 246 µM)
4 | CCc1ccc(/C=C/C(=O)c2cc(C)oc2C)o1 | 40 (≈ 164 µM) | inactive | 0 | 21 | 40 (≈ 164 µM) | 2.08 | 18 | 24 | 31 | 40 (≈ 164 µM) | 0 | 40 (≈ 164 µM) | inactive | 0 | 40 (≈ 164 µM) | 27 | inactive | 30 (≈ 123 µM) | 22 | 23 | CC50 (HepG2): 69 mg/L (≈ 282 µM)
5 | O=C(O)c1cn(C2CC2)c2cc(N3CCNCC3)c(F)cc2c1=O [CIPROFLOXACIN] | – | – | – | – | – | – | 24 | 23 | – | – | – | – | – | – | – | – | – | – | – | 23 | –
6 | OC(Cn1cncn1)(Cn1cncn1)c1ccc(F)cc1F [FLUCONAZOLE] | – | – | – | 24 | – | – | – | – | – | – | – | – | – | – | – | – | – | – | 25 | – | –
